Measured values published in publication PMC12670405, “Second-Generation AURKA-Targeting PROTACs: Structural Optimization toward in Vivo Degradation in Neuroblastoma” (Journal of Medicinal Chemistry, 2025).

Assays:
Test in all cases: KINOMEscan scanMAX
Assay type in all cases: binding
Conditions in all cases: read-out: Percent Control
EGFR(E746-A750del) = target: T1, EGFR(E746-A750del) (Homo sapiens, UniProt P00533, DEL746-750)
T1 construct: purchased Eurofins Discovery (DiscoverX KINOMEscan scanMAX)
T1 sequence (P00533 with tags, fused parts or gaps DEL746-750 limits assumed): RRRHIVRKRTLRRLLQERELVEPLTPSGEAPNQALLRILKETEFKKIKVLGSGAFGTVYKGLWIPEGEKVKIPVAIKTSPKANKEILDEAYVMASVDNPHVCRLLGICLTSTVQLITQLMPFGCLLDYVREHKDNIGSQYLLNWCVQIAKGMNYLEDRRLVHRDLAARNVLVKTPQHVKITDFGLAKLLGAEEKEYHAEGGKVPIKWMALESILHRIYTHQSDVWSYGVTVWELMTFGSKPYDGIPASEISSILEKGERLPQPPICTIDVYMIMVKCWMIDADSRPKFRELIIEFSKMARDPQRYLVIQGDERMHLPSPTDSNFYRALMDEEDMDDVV
Protocol: (§1) The kinome-wide binding assay was performed by Eurofins Discovery using the scanMAX screening platform. More information can be found on the Eurofins Discovery Web site.

HUNK = target: T2, HUNK (Homo sapiens, UniProt P57058)
T2 construct: purchased Eurofins Discovery (DiscoverX KINOMEscan scanMAX)
Protocol: as §1

YANK2 = target: T3, YANK2 (Homo sapiens, UniProt Q9NY57)
T3 construct: purchased Eurofins Discovery (DiscoverX KINOMEscan scanMAX)
Protocol: as §1

ADCK4 = target: T4, ADCK4 (Homo sapiens, UniProt Q96D53)
T4 construct: purchased Eurofins Discovery (DiscoverX KINOMEscan scanMAX)
T4 sequence (Q96D53 whole entry): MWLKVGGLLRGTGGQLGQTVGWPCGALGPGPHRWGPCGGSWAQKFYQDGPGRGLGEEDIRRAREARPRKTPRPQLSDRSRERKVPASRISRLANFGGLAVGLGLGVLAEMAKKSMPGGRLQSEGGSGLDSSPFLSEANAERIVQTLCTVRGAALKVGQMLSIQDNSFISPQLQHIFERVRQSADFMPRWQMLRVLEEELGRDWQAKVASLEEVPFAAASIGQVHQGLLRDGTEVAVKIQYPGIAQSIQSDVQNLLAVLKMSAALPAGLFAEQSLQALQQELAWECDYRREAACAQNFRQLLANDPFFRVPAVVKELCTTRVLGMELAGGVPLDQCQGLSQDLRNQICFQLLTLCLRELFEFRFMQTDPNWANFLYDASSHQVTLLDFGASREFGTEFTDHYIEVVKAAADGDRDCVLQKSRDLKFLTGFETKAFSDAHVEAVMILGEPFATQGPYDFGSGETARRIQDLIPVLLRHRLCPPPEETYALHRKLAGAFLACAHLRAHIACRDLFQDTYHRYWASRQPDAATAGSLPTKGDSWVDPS
Protocol: as §1

[1] = target: T5, JAK1(JH1domain-catalytic) (Homo sapiens, UniProt P23458)
T5 construct: JAK1(JH1domain-catalytic); purchased Eurofins Discovery (DiscoverX KINOMEscan scanMAX)
T5 sequence (P23458 854-1154 limits assumed): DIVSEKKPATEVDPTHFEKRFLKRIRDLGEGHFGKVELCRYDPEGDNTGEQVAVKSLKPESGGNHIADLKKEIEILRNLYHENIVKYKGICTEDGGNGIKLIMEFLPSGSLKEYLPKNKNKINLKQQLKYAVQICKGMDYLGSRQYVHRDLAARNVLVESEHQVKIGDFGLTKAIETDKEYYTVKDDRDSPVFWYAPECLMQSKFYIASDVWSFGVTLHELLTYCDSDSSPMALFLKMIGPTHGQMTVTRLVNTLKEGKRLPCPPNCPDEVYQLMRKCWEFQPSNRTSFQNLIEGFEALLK
Protocol: as §1

MST1R = target: T6, MST1R (Homo sapiens, UniProt Q04912)
T6 construct: purchased Eurofins Discovery (DiscoverX KINOMEscan scanMAX)
Protocol: as §1

MAP4K4 = target: T7, MAP4K4 (Homo sapiens, UniProt O95819)
T7 construct: purchased Eurofins Discovery (DiscoverX KINOMEscan scanMAX)
Protocol: as §1

SIK = target: T8, SIK (Homo sapiens, UniProt P57059)
T8 construct: purchased Eurofins Discovery (DiscoverX KINOMEscan scanMAX)
Protocol: as §1

[2] = target: T9, EGFR(L747-S752del, P753S) (Homo sapiens, UniProt P00533, DEL747-752/P753S)
T9 construct: purchased Eurofins Discovery (DiscoverX KINOMEscan scanMAX)
Protocol: as §1

DAPK2 = target: T10, DAPK2 (Homo sapiens, UniProt Q9UIK4)
T10 construct: purchased Eurofins Discovery (DiscoverX KINOMEscan scanMAX)
Protocol: as §1

PIM3 = target: T11, PIM3 (Homo sapiens, UniProt Q86V86)
T11 construct: purchased Eurofins Discovery (DiscoverX KINOMEscan scanMAX)
Protocol: as §1

CTK = target: T12, CTK (Homo sapiens, UniProt P42679)
T12 construct: purchased Eurofins Discovery (DiscoverX KINOMEscan scanMAX)
T12 sequence (P42679 whole entry): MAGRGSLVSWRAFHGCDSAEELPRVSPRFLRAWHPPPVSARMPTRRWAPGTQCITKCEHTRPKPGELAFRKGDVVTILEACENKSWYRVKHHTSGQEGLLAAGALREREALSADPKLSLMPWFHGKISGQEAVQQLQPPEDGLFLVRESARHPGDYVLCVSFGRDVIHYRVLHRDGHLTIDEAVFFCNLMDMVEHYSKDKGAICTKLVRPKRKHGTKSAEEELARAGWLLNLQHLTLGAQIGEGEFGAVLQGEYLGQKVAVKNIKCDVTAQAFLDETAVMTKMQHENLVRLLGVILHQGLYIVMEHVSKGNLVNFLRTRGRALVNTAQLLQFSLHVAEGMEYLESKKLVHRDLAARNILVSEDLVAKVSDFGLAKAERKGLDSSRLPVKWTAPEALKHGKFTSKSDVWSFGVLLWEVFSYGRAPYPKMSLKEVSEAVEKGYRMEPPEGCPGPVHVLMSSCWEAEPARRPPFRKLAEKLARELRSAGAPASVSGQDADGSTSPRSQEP
Protocol: as §1

MAP3K2 = target: T13, MAP3K2 (Homo sapiens, UniProt Q9Y2U5)
T13 construct: purchased Eurofins Discovery (DiscoverX KINOMEscan scanMAX)
Protocol: as §1

ITK = target: T14, ITK (Homo sapiens, UniProt Q08881)
T14 construct: purchased Eurofins Discovery (DiscoverX KINOMEscan scanMAX)
Protocol: as §1

[3] = target: T15, TYK2(JH2domain-pseudokinase) (Homo sapiens, UniProt P29597)
T15 construct: TYK2(JH2domain-pseudokinase); purchased Eurofins Discovery (DiscoverX KINOMEscan scanMAX)
T15 sequence (P29597 556-888 limits assumed): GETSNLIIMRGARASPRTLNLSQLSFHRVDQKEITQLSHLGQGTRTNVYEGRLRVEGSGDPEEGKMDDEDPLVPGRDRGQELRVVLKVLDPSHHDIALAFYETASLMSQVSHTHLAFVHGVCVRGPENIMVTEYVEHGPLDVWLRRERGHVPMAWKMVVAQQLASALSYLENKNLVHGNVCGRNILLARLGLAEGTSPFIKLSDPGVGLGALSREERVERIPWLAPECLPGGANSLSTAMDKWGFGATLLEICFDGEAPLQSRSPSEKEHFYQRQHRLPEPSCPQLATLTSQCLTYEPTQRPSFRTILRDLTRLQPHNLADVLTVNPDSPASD
Protocol: as §1

EGFR(L861Q) = target: T16, EGFR(L861Q) (Homo sapiens, UniProt P00533, L861Q)
T16 construct: purchased Eurofins Discovery (DiscoverX KINOMEscan scanMAX)
Protocol: as §1

CDKL1 = target: T17, CDKL1 (Homo sapiens, UniProt Q00532)
T17 construct: purchased Eurofins Discovery (DiscoverX KINOMEscan scanMAX)
T17 sequence (Q00532 whole entry): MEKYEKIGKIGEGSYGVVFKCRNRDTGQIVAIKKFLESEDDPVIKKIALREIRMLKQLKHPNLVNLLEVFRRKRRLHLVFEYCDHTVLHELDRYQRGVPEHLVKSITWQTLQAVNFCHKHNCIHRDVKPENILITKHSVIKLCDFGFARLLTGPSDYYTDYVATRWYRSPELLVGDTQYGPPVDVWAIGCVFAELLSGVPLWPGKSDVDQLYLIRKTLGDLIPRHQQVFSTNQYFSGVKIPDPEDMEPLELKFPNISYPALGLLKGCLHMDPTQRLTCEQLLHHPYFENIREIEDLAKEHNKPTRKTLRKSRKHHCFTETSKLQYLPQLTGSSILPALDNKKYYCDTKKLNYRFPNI
Protocol: as §1

TGFBR2 = target: T18, TGFBR2 (Homo sapiens, UniProt P37173)
T18 construct: purchased Eurofins Discovery (DiscoverX KINOMEscan scanMAX)
Protocol: as §1

FES = target: T19, FES (Homo sapiens, UniProt P07332)
T19 construct: purchased Eurofins Discovery (DiscoverX KINOMEscan scanMAX)
Protocol: as §1

LATS2 = target: T20, LATS2 (Homo sapiens, UniProt Q9NRM7)
T20 construct: purchased Eurofins Discovery (DiscoverX KINOMEscan scanMAX)
T20 sequence (Q9NRM7 whole entry): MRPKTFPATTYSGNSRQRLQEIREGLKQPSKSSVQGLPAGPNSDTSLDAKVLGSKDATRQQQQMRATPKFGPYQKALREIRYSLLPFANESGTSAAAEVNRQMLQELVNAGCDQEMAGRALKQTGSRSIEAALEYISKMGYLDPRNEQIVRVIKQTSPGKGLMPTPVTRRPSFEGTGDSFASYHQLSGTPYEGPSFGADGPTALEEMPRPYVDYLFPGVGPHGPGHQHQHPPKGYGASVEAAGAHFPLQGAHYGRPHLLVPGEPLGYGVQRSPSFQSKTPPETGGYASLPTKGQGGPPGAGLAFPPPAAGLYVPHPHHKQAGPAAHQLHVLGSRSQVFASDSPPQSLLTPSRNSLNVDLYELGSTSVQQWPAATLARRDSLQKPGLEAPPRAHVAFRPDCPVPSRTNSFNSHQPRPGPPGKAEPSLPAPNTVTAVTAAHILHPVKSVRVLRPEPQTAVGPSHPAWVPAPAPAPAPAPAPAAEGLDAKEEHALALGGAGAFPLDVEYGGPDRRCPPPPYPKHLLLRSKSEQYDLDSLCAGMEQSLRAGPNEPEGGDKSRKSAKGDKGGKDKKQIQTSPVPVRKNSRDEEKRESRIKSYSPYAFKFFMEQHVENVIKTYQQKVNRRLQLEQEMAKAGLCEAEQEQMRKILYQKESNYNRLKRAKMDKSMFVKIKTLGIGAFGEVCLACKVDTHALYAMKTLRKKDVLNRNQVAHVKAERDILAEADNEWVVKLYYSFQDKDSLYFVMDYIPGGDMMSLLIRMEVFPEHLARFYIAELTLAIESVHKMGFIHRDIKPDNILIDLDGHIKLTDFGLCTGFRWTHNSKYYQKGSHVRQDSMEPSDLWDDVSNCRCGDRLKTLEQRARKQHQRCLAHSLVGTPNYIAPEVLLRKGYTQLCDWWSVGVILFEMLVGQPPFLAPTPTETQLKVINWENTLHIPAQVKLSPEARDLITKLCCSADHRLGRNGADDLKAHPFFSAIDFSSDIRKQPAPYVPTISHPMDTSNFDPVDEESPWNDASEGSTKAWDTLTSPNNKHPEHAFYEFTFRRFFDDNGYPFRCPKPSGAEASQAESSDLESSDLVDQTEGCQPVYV
Protocol: as §1

LIMK2 = target: T21, LIMK2 (Homo sapiens, UniProt P53671)
T21 construct: purchased Eurofins Discovery (DiscoverX KINOMEscan scanMAX)
Protocol: as §1

[4] = target: T22, JAK3(JH1domain-catalytic) (Homo sapiens, UniProt P52333)
T22 construct: JAK3(JH1domain-catalytic); purchased Eurofins Discovery (DiscoverX KINOMEscan scanMAX)
T22 sequence (P52333 814-1124 limits assumed): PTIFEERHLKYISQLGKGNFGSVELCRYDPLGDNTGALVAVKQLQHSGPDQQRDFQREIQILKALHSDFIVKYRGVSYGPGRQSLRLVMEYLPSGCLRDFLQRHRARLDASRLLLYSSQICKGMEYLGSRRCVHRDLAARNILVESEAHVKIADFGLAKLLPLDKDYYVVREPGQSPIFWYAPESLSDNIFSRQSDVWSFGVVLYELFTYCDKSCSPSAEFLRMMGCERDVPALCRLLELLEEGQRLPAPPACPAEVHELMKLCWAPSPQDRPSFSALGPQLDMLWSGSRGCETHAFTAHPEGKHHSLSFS
Protocol: as §1

PFTAIRE2 = target: T23, PFTAIRE2 (Homo sapiens, UniProt Q96Q40)
T23 construct: purchased Eurofins Discovery (DiscoverX KINOMEscan scanMAX)
T23 sequence (Q96Q40 whole entry): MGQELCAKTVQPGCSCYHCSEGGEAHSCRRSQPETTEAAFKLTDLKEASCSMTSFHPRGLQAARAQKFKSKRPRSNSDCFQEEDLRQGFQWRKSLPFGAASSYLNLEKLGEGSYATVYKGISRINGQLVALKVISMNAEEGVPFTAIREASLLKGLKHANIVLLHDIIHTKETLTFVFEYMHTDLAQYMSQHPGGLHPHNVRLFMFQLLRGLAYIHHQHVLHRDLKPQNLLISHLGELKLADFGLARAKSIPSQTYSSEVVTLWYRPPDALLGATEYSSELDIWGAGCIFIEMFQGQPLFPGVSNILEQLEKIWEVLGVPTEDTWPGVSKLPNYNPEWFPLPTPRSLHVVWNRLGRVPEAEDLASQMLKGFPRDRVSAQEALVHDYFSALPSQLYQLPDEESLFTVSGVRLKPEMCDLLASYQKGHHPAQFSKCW
Protocol: as §1

IRAK1 = target: T24, IRAK1 (Homo sapiens, UniProt P51617)
T24 construct: purchased Eurofins Discovery (DiscoverX KINOMEscan scanMAX)
Protocol: as §1

CDK7 = target: T25, CDK7 (Homo sapiens, UniProt P50613)
T25 construct: purchased Eurofins Discovery (DiscoverX KINOMEscan scanMAX)
Protocol: as §1

GAK = target: T26, GAK (Homo sapiens, UniProt O14976)
T26 construct: purchased Eurofins Discovery (DiscoverX KINOMEscan scanMAX)
Protocol: as §1

DLK = target: T27, DLK (Homo sapiens, UniProt Q12852)
T27 construct: purchased Eurofins Discovery (DiscoverX KINOMEscan scanMAX)
Protocol: as §1

TNIK = target: T28, TNIK (Homo sapiens, UniProt Q9UKE5)
T28 construct: purchased Eurofins Discovery (DiscoverX KINOMEscan scanMAX)
Protocol: as §1

CDKL2 = target: T29, CDKL2 (Homo sapiens, UniProt Q92772)
T29 construct: purchased Eurofins Discovery (DiscoverX KINOMEscan scanMAX)
Protocol: as §1

CAMK1D = target: T30, CAMK1D (Homo sapiens, UniProt Q8IU85)
T30 construct: purchased Eurofins Discovery (DiscoverX KINOMEscan scanMAX)
T30 sequence (Q8IU85 whole entry): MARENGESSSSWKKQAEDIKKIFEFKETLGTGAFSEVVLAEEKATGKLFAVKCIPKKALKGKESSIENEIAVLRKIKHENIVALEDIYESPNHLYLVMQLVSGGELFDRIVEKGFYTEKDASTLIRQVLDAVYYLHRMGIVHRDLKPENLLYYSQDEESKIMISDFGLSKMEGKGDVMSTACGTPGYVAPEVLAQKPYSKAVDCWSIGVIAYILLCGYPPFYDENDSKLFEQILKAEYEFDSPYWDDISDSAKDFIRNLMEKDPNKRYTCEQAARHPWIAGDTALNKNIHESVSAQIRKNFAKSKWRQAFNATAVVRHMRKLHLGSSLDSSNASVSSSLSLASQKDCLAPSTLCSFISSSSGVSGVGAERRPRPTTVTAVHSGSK
Protocol: as §1

EPHA3 = target: T31, EPHA3 (Homo sapiens, UniProt P29320)
T31 construct: purchased Eurofins Discovery (DiscoverX KINOMEscan scanMAX)
Protocol: as §1

MST1 = target: T32, MST1 (Homo sapiens, UniProt Q13043)
T32 construct: purchased Eurofins Discovery (DiscoverX KINOMEscan scanMAX)
Protocol: as §1

ASK1 = target: T33, ASK1 (Homo sapiens, UniProt Q99683)
T33 construct: purchased Eurofins Discovery (DiscoverX KINOMEscan scanMAX)
Protocol: as §1

## Cc1cc(Nc2ccc(F)c(CC3(C(=O)N4CCC(F)(CN5CCN(c6ccc(N7CCC(=O)NC7=O)cn6)CC5)CC4)CCN(Cc4cccc(Cl)c4F)CC3)n2)n[nH]1 [SK5527]
EGFR(E746-A750del); 100 nM
  remaining binding at 0.1 µM: 78%
EGFR(E746-A750del); 1000 nM
  remaining binding at 1 µM: 70%
HUNK; 100 nM
  remaining binding at 0.1 µM: 93%
HUNK; 1000 nM
  remaining binding at 1 µM: 100%
YANK2; 100 nM
  remaining binding at 0.1 µM: 100%
YANK2; 1000 nM
  remaining binding at 1 µM: 100%
ADCK4; 100 nM
  remaining binding at 0.1 µM: 92%
ADCK4; 1000 nM
  remaining binding at 1 µM: 84%
[1]; 100 nM
  remaining binding at 0.1 µM: 82%
[1]; 1000 nM
  remaining binding at 1 µM: 93%
MST1R; 100 nM
  remaining binding at 0.1 µM: 100%
MST1R; 1000 nM
  remaining binding at 1 µM: 100%
MAP4K4; 100 nM
  remaining binding at 0.1 µM: 86%
MAP4K4; 1000 nM
  remaining binding at 1 µM: 73%
SIK; 100 nM
  remaining binding at 0.1 µM: 93%
SIK; 1000 nM
  remaining binding at 1 µM: 59%
[2]; 100 nM
  remaining binding at 0.1 µM: 81%
[2]; 1000 nM
  remaining binding at 1 µM: 65%
DAPK2; 100 nM
  remaining binding at 0.1 µM: 100%
DAPK2; 1000 nM
  remaining binding at 1 µM: 93%
PIM3; 100 nM
  remaining binding at 0.1 µM: 100%
PIM3; 1000 nM
  remaining binding at 1 µM: 100%
CTK; 100 nM
  remaining binding at 0.1 µM: 100%
CTK; 1000 nM
  remaining binding at 1 µM: 91%
MAP3K2; 100 nM
  remaining binding at 0.1 µM: 92%
MAP3K2; 1000 nM
  remaining binding at 1 µM: 73%
ITK; 100 nM
  remaining binding at 0.1 µM: 100%
ITK; 1000 nM
  remaining binding at 1 µM: 81%
[3]; 100 nM
  remaining binding at 0.1 µM: 51%
[3]; 1000 nM
  remaining binding at 1 µM: 51%
EGFR(L861Q); 100 nM
  remaining binding at 0.1 µM: 95%
EGFR(L861Q); 1000 nM
  remaining binding at 1 µM: 100%
CDKL1; 100 nM
  remaining binding at 0.1 µM: 99%
CDKL1; 1000 nM
  remaining binding at 1 µM: 94%
TGFBR2; 100 nM
  remaining binding at 0.1 µM: 100%
TGFBR2; 1000 nM
  remaining binding at 1 µM: 100%
FES; 100 nM
  remaining binding at 0.1 µM: 100%
FES; 1000 nM
  remaining binding at 1 µM: 100%
LATS2; 100 nM
  remaining binding at 0.1 µM: 69%
LATS2; 1000 nM
  remaining binding at 1 µM: 43%
LIMK2; 100 nM
  remaining binding at 0.1 µM: 100%
LIMK2; 1000 nM
  remaining binding at 1 µM: 98%
[4]; 100 nM
  remaining binding at 0.1 µM: 100%
[4]; 1000 nM
  remaining binding at 1 µM: 80%
PFTAIRE2; 100 nM
  remaining binding at 0.1 µM: 75%
PFTAIRE2; 1000 nM
  remaining binding at 1 µM: 80%
IRAK1; 100 nM
  remaining binding at 0.1 µM: 94%
IRAK1; 1000 nM
  remaining binding at 1 µM: 76%
CDK7; 100 nM
  remaining binding at 0.1 µM: 91%
CDK7; 1000 nM
  remaining binding at 1 µM: 100%
GAK; 100 nM
  remaining binding at 0.1 µM: 88%
GAK; 1000 nM
  remaining binding at 1 µM: 99%
DLK; 100 nM
  remaining binding at 0.1 µM: 71%
DLK; 1000 nM
  remaining binding at 1 µM: 55%
TNIK; 100 nM
  remaining binding at 0.1 µM: 96%
TNIK; 1000 nM
  remaining binding at 1 µM: 90%
CDKL2; 100 nM
  remaining binding at 0.1 µM: 90%
CDKL2; 1000 nM
  remaining binding at 1 µM: 100%
CAMK1D; 100 nM
  remaining binding at 0.1 µM: 100%
CAMK1D; 1000 nM
  remaining binding at 1 µM: 100%
EPHA3; 100 nM
  remaining binding at 0.1 µM: 99%
EPHA3; 1000 nM
  remaining binding at 1 µM: 71%
MST1; 100 nM
  remaining binding at 0.1 µM: 100%
MST1; 1000 nM
  remaining binding at 1 µM: 100%
ASK1; 100 nM
  remaining binding at 0.1 µM: 91%
ASK1; 1000 nM
  remaining binding at 1 µM: 92%
